Test results taken from the NIST ThermoML archive (doi:10.1016/j.jct.2017.06.001).
Numbers after ± are expanded uncertainties.

Assay: xn = mol fraction of the nth substance listed
Settings: 100 kPa, Liquid; for mass density: 303.15 K, Vibrating tube method; for speed of sound: 308.15 K, Frequency=5 MHz, Pulse-echo method

OCCCCCO [1,5-pentanediol] + O
Settings	mass density [kg/m3]	speed of sound [m/s]
x1 = 0.0001	–	1519.6 ± 1.1
x1 = 0.0003	–	1520.1 ± 1.1
x1 = 0.0005	–	1520.7 ± 1.1
x1 = 0.0007	–	1521.5 ± 1.1
x1 = 0.001	–	1522.4 ± 1.1
x1 = 0.0014	–	1523.4 ± 1.1
x1 = 0.0018	–	1524.7 ± 1.2
x1 = 0.0023	–	1526.2 ± 1.2
x1 = 0.0028	–	1527.9 ± 1.2
x1 = 0.0034	–	1529.7 ± 1.2
x1 = 0.004	–	1531.4 ± 1.2
x1 = 0.0047	–	1533.5 ± 1.2
x1 = 0.005	995.24 ± 0.52	–
x1 = 0.0055	–	1535.7 ± 1.2
x1 = 0.0064	–	1538.1 ± 1.2
x1 = 0.0073	–	1540.8 ± 1.2
x1 = 0.0083	–	1543.6 ± 1.2
x1 = 0.0094	–	1546.5 ± 1.2
x1 = 0.0101	995.18 ± 1	–
x1 = 0.0105	–	1549.3 ± 1.2
x1 = 0.0116	–	1552.2 ± 1.2
x1 = 0.0129	–	1555.4 ± 1.2
x1 = 0.0141	–	1558.3 ± 1.2
x1 = 0.0154	–	1561.5 ± 1.2
x1 = 0.0167	–	1564.5 ± 1.2
x1 = 0.0181	–	1567.6 ± 1.2
x1 = 0.0195	–	1570.7 ± 1.2
x1 = 0.0196	995.46 ± 1	–
x1 = 0.0211	–	1574.1 ± 1.2
x1 = 0.0225	–	1577 ± 1.2
x1 = 0.0238	–	1579.8 ± 1.2
x1 = 0.0251	995.87 ± 1	–
x1 = 0.0252	–	1582.6 ± 1.2
x1 = 0.0268	–	1585.5 ± 1.2
x1 = 0.0283	–	1588.5 ± 1.2
x1 = 0.0298	–	1591.2 ± 1.2
x1 = 0.0304	996.33 ± 1	–
x1 = 0.0316	–	1594.3 ± 1.2
x1 = 0.0336	–	1597.7 ± 1.2
x1 = 0.0351	–	1600.2 ± 1.2
x1 = 0.0367	–	1602.6 ± 1.2
x1 = 0.0384	–	1605.2 ± 1.2
x1 = 0.0403	–	1608.1 ± 1.2
x1 = 0.0417	–	1610 ± 1.2
x1 = 0.0436	–	1612.7 ± 1.2
x1 = 0.0459	–	1615.8 ± 1.2
x1 = 0.0481	–	1618.5 ± 1.2
x1 = 0.05	997.59 ± 1	–
x1 = 0.0505	–	1621.5 ± 1.2
x1 = 0.0528	–	1624 ± 1.2
x1 = 0.0551	–	1626.6 ± 1.2
x1 = 0.0574	–	1629 ± 1.2
x1 = 0.0594	–	1631 ± 1.2
x1 = 0.062	–	1633.4 ± 1.2
x1 = 0.0648	–	1635.9 ± 1.2
x1 = 0.0671	–	1637.9 ± 1.2
x1 = 0.0706	–	1640.7 ± 1.2
x1 = 0.073	–	1642.4 ± 1.2
x1 = 0.0758	–	1644.4 ± 1.2
x1 = 0.0769	998.6 ± 1	–
x1 = 0.1002	999.37 ± 1.1	–
x1 = 0.1438	999.75 ± 1.1	–
x1 = 0.1845	999.44 ± 1.1	–
x1 = 0.2503	998.42 ± 1.2	–
x1 = 0.3	997.34 ± 1.2	–
x1 = 0.3343	996.61 ± 1.3	–
x1 = 0.4171	994.93 ± 1.4	–
x1 = 0.454	994.03 ± 1.4	–
x1 = 0.5003	993 ± 1.5	–
x1 = 0.5362	992.2 ± 1.5	–
x1 = 0.6177	990.7 ± 1.7	–
x1 = 0.6478	990.1 ± 1.7	–
x1 = 0.7025	989.2 ± 1.8	–
x1 = 0.7504	988.4 ± 1.9	–
x1 = 0.7927	987.6 ± 2	–
x1 = 0.8605	986.4 ± 2.1	–
x1 = 0.9004	985.7 ± 2.2	–
x1 = 0.9496	984.6 ± 2.3	–
x1 = 1	983.6 ± 2.1	–
